# Data reported in US20250059196A1 (SHANGHAI HANSOH BIOMEDICAL CO., LTD., priority 2021, published 2025).
# Where two headings read alike, the source gives them in different places.
# How the values were obtained:
# [1] = tested on: OCI-LY3 cell subcutaneous xenograft tumor; assay: Tumor inhibition in OCI-LY3 subcutaneous xenograft NOG mouse model of human diffuse large B-cell lymphoma; format: in vivo; settings: NOG mice, 30 mg, BID × 4 weeks, oral
# Experimental: The efficacy of test drugs was evaluated in OCI-LY3 mouse subcutaneous tumor model of human diffuse large B-cell lymphoma
# • 1. Animal: NOG mice, female, 6-8 weeks old, weighing 18-22 grams, a total of 65 mice were needed. Provided by Beijing Vital River Laboratory Animal Technology Co., Ltd. or other qualified suppliers. • 2. Cell: Human diffuse large B-cell lymphoma OCI-LY3 cells were cultured in vitro as monolayers and conventional digestion treatment with trypsin-EDTA was carried out twice a week for passage. When the cell confluence was 80%-90% and the number reached the required number, cells were collected, counted, and inoculated. • 3. Grouping for vaccination: Cells (5×10^6 cells+Matrigel/0.2 ml) were inoculated subcutaneously into each mouse. The growth of animals and transplanted tumors were observed regularly. When the tumor grew to a volume of about 150-200 mm^3, the tumor volume of each mouse was calculated, and the mice were divided into random groups according to tumor volume and body weight. The calculation formula of tumor volume was V=0.5a×b^2, wherein a and b represented the long and short diameters of the tumor, respectively. • 4. Administration: According to the grouping results, the test drug was started to be administered (administration method: oral administration; Administration volume: 10 mL/kg; Administration frequency: 2 times/day; Administration cycle: 28 days; Vehicle: 10% solutol HS15-0.25% CMC-Na). Tumors were measured and weighed twice a week after starting administration of test drugs. • 5. Animals were euthanized after the experiment. • 6. Data processing: The tumor inhibitory efficacy of the compound was evaluated by TGI (%) or relative tumor proliferation rate T/C (%). TGI (%) reflects the tumor growth inhibition rate. Calculation of TGI (%): TGI (%)=[(1−(average tumor volume at the end of administration in a treatment group−average tumor volume at the beginning of administration in the treatment group))/(average tumor volume at the end of administration in the solvent control group−average tumor volume at the beginning of administration in the solvent control group)]×100%.
# Relative tumor proliferation rate T/C (%): The calculation formulas are as follows: T/C %=TRTV/CRTV×100% (TRTV: RTV of treatment group; CRTV: RTV of negative control group). The relative tumor volume (RTV) was calculated based on the results of tumor measurement. The calculation formula is RTV=Vt/V0, where V0 is the average tumor volume measured at grouping for administration (i.e. d0), Vt is the average tumor volume at a certain measurement, and TRTV and CRTV take the data on the same day.
# After the experiment, the tumor weight was measured, and the T/Cweight percentage was calculated. Tweight and Cweight represented the tumor weight of the administration group and the vehicle control group, respectively.
# Remarks: The data in parentheses indicate the tumor volume corresponding to the vehicle group (i.e., the control group) at the corresponding time in this example.
# Caco-2 cells [2] = assay: Caco-2 bidirectional permeability test
# Experimental: (§3) The purpose of this experiment is to test the bidirectional permeability of the compound through the Caco-2 cell model and evaluate whether the compound is transported by efflux transporters.
# (§4) Liquid chromatography-mass spectrometer, centrifuge, vortexer, pipette, 96-well test plate (HTS Transwell Plate), acetonitrile solution containing internal standard, Caco-2 cells (ATCC), Hank's balance solution (HBSS), fluorescent yellow (LY), dimethyl sulfoxide (DMSO).
# (§5) 108 μL of transport buffer (HBSS containing 10 μM of the example compound) was added to the administration end of A to B. • b. 300 μL of transport buffer (HBSS containing DMSO) was added to the receiving end of A to B. • c. 300 μL of transport buffer (HBSS containing 10 μM example compound) was added to the administration end of A to B. • d. 108 μL of transport buffer (HBSS containing DMSO) was added to the receiving end of A to B. • e. incubation was performed for 90 min. • d. a sample was taken, processed and detected with mass spectrometry.
# (§6) • Instruments: Liquid Chromatography; • Chromatographic column: Waters XSelect HSS T3 2.5 μm (2.1×50 mm); • Mobile phase: Phase A: 0.1% formic acid in pure water; Phase B: 0.1% formic acid in acetonitrile.
# (§7) • Instruments: AP16500+liquid chromatography-mass spectrometer; • The ion source is electrospray ionization source (ESI); • The detection method is positive ion detection;
# (§8) The scanning method is selected reaction monitoring (MRM).
# [3] = Pharmacokinetics of oral administration in Balb/C mice; format: in vivo; settings: 30 mg/kg, P.O., plasma
# Experimental: Balb/C mice were used as test animals to study the pharmacokinetic behavior of the compound in the plasma of mice after oral administration at a dose of 30 mg/kg.
# 3 Balb/C mice (3/example), male, from Shanghai Jiesijie Experimental Animal Co., Ltd., animal production license number (SCXK (Shanghai) 2013-0006 N0.311620400001794).
# 3 Balb/C mice, male; p.o. respectively at a dose of 30 mg/kg and an administration volume of 10 mL/kg after the mice were fasted overnight.
# Before and after administration of mice, 0.1 mL of blood was collected from the orbit at 0, 0.5, 1, 2, 4, 6, 8 and 24 h, and placed in EDTA-K2 test tubes, which was centrifuged at 6000 rpm at 4° C. for 6 min to separate plasma which was stored at −80° C.
# • 1) 160 μL of acetonitrile was added to 40 μL of plasma sample for precipitation, and same was mixed and centrifuged at 3500×g for 5 to 20 min. • 2) 100 μL of the treated supernatant solution was taken and subjected to LC/MS/MS to analyze the concentrations of the test compounds.
# • Liquid phase conditions: Shimadzu LC-20AD pump • Mass spectrometry conditions: AB Sciex API 4000 mass spectrometer • Chromatographic column: Phenomenex Gemiu 5 um C18 50×4.6 mm • Mobile phase: liquid A is 0.1% aqueous formic acid solution, liquid B is acetonitrile • flow rate: 0.8 mL/min • Elution time: 0-4.0 min, the eluent is as follows:
# The main pharmacokinetic parameters were calculated using WinNonlin 8.2.
# [4] = target: MALT1 protease activity in TMD8 cells (substrate BCL-10) (Homo sapiens (Human), UniProt Q9UDY8); assay: Intracellular MALT1 protease activity detection (BCL-10 ELISA in TMD8 cells); format: cell-based; settings: undigested BCL-10 by ELISA, 30 min compound then 2 h stimulation cocktail, read-out: Bcl10 TMD8 IC50
# Experimental: By detecting the digestion level of the substrate BCL-10 by MALT1 in TMD8 cells, the inhibitory effect of the compound on MALT1 protease activity in the cellular environment was tested.
# The ELISA sandwich method was used to detect the content of undigested BCL-10 protein in cells and determine the inhibitory effect of compounds on intracellular MALT1 protease activity. The highest concentration of the compound detected was 10000 nM, 3-fold dilution, a total of 9 concentrations (10000 nM-1.5 nM). Cells were plated at an appropriate density. Compounds of corresponding concentrations were first added for action for 30 min, and then eBioscience cell stimulation cocktail was added to stimulate the cells for 2 h. Cell lysate was then collected. The cell lysate was added to the assay plate previously coated with recombinant BCL-10 antibody (Abcam, #Ab33905) and incubated at 4° C. overnight. The next day, BCL-10 detection antibody (Santacruz, #Sc-5273HRP) was added and incubated for 2 h, TMB substrate was used for color development for about 30 min, then the color development was terminated, and a microplate reader was used for detection.
# 2) Curve fitting: Log(inhibitor) vs. response—Variable slope (four parameters) in GraphPad Prism 6 was used to perform fitting equation analysis on compound concentration and corresponding inhibition rate, the curve was fit and compound IC50 value was obtained.
# (§1) The fitting calculation equation is Y=Bottom+(Top−Bottom)/(1+10^((Log IC50−X)*HillSlope))
# OCI-Ly3 cells = assay: Inhibition of proliferation of OCI-Ly3 cells (CellTiter-Glo); format: cell-based, human; settings: 96 h incubation, read-out: Inhibition test of proliferation of OCI-Ly3 cells IC50
# Experimental: The compound's inhibitory effect on the proliferation of TMD8 and OCI-Ly3 cells was evaluated through cell proliferation inhibition experiments.
# The compound's inhibitory effect on the proliferation of TMD8 and OCI-Ly3 cells was detected by the CellTiter-Glo method. The highest concentration of the compound detected was 1000 nM, 3-fold dilution, a total of 9 concentrations (1000 nM-0.15 nM). After the cells were plated at an appropriate density, compounds were added the next day and incubated for 96 h before detection using the CellTiter-Glo Luminescent detection kit.
# (§2) Log(inhibitor) vs. response—Variable slope (four parameters) in GraphPad Prism 6 was used to perform fitting equation analysis on compound concentration and corresponding inhibition rate, the curve was fit and compound IC50 value was obtained.
# as §1
# [5] = target: Recombinant human MALT1/MLT protein (Homo sapiens (Human), UniProt Q9UDY8); assay: Inhibitory effect on MALT1 enzyme activity (Ac-LRSR-AMC substrate, fluorescence 460 nm); format: biochemical; settings: 10 nM FL MALT1, Ac-LRSR-AMC substrate, 50 min pre-incubation, 4 h reaction
# Experimental: Ac-LRSR-AMC was used as the substrate to test the IC50 of the inhibitory activity of compounds on MALT1 enzyme activity at their Km concentration.
# Ac-LRSR-AMC was used as the substrate which was digested by MALT1 to produce products, which produced fluorescence that could be detected at 460 nm. The highest concentration of the compound detected was 1000 nM, 3-fold dilution, a total of 11 concentrations (1000 nM-0.017 nM). The reaction system is 10 nM FL MALT1 protein, […] Ac-LRSR-AMC, 50 mM Tris pH 7.5, 0.6M Citrate, 1 mM DTT, 1 mM EDTA, 0.05% BSA and 1.5% DMSO. The compound and the enzyme were pre-incubated at room temperature for 50 min. The substrate was then added and the reaction was carried out for 4 h.
# The original data (460 nm reading) was calculated according to the following formula to obtain the inhibition rate.
# as §2, §1
# Caco-2 cells [6] = tested on: Caco-2 cells
# Experimental: as §3, §4, §5, §6, §7, §8
# Chain of Recombinant human MALT1/MLT protein (Q9UDY8 whole entry): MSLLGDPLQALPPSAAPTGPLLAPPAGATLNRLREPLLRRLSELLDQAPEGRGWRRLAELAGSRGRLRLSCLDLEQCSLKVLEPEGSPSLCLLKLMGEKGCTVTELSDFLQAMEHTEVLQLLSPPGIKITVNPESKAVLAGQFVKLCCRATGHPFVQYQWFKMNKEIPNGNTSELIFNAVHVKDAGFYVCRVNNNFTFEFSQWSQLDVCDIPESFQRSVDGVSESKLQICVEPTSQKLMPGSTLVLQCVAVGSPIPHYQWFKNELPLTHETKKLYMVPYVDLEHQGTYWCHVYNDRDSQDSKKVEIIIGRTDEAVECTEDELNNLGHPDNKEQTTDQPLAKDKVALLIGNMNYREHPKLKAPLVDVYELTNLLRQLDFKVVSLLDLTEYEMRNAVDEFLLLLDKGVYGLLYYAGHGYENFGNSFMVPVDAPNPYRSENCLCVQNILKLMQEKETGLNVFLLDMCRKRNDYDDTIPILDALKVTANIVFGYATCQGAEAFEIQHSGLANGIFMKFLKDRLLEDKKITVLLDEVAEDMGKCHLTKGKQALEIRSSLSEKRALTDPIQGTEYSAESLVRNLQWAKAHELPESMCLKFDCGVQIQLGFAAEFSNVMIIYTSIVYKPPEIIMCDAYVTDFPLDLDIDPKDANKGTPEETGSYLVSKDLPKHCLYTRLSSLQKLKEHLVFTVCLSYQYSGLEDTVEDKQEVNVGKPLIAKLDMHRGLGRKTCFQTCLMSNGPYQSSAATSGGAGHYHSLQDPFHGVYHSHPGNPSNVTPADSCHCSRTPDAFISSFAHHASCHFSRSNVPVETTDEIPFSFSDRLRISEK
# Chain of MALT1 protease activity in TMD8 cells (substrate BCL-10) (Q9UDY8 whole entry): as above
Compound,TGI (%) Day 28 [1] [%],Weight Day 28 [1],ΔT/ΔC(%) Day 28 [1] [%],Tumor volume (Mean ± SD) Day 28 ([1]; vehicle group 1274 ± 82),"Papp A − B (Caco-2 cells [2]; Caco-2, 10 μM, 90 min, A to B)","Papp B − A (Caco-2 cells [2]; Caco-2, 10 μM, 90 min, B to A)",Papp(B − A)/Papp(A − B) (Caco-2 cells [2]; Caco-2 efflux ratio),AUC0-∞ [3],AUC(0-t) [3],Cmax [3],MRT [3] [h],T1/2 [3] [h],IC50 [4] [nM],IC50 (OCI-Ly3 cells) [nM],IC50 [5] [nM],Tmax [3] [h],Papp A − B (Caco-2 cells [6]; Caco-2),Papp B − A (Caco-2 cells [6]; Caco-2),"Papp(B − A)/Papp(A − B) (Caco-2 cells [6]; human, Caco-2, 90 min, 10 μM)"
O=C(Nc1ccnc(C(F)(F)F)c1)c1cnn(-c2ccc3c4c(cccc24)C(=O)N3)c1C(F)(F)F [Example 27],93.04,20.34 ± 0.78,19.83,230 ± 50 (1274 ± 82) mm^3,4.21 10^−6 cm · s^−1,11.52 10^−6 cm · s^−1,2.74,"1,584,433 ng/mL*hr","1,130,746 ng/mL*h","71,267 ng/mL",18.7,13.1,51,804,162,,,,
O=C(Nc1ccnc(C(F)(F)F)c1)c1cnn(-c2ccc3c4c(cccc24)C(=O)N3)c1C(F)(F)F [Example 3],,,,,,,,"341,390 ng/mL*hr","330,088 ng/mL*h","23,733 ng/mL",7.4,4.7,83,,105,4.0,1.57 10^−6 cm · s^−1,10.24 10^−6 cm · s^−1,6.52
